Source: PubChem BioAssay AID330 (DTP/NCI, 2004)
Where “and” joins values, the source holds several entries; their conditions need not be identical. Equal entries are not always repeated. Toxic doses and inconclusive results are not listed. How the source made its calls: active means survival T/C of 150% or more; inactive means T/C below 125% in these data.

Test system: P388 leukemia ip, CD2F1 mice, survival T/C
Assay: NCI In Vivo Anticancer Drug Screen. Data for tumor model P388 Leukemia (intraperitoneal) in CD2F1 (CDF1) mice
Conditions: endpoint: median survival time, higher = longer survival
How it was run: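 Mice carrying the transplanted tumor received test compound or vehicle. Survival was recorded in each group, and the value is the treated-group measurement divided by that of the vehicle-treated control group.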

[1] = dose: 25.0 mg/kg/injection, schedule: Q01DX009 (ip), vehicle: saline with Tween-80
[2] = dose: 50.0 mg/kg/injection, schedule: Q01DX009 (ip), vehicle: saline with Tween-80
[3] = dose: 100.0 mg/kg/injection, schedule: Q01DX009 (ip), vehicle: saline with Tween-80
[4] = dose: 200.0 mg/kg/injection, schedule: Q01DX009 (ip), vehicle: saline with Tween-80
[5] = dose: 50.0 mg/kg/injection, schedule: Q01DX005 (ip), vehicle: saline with Tween-80
[6] = dose: 100.0 mg/kg/injection, schedule: Q01DX005 (ip), vehicle: saline with Tween-80
[7] = dose: 200.0 mg/kg/injection, schedule: Q01DX005 (ip), vehicle: saline with Tween-80
[8] = dose: 100.0 mg/kg/injection, schedule: Q01DX001 (ip), vehicle: saline with Tween-80
[9] = dose: 200.0 mg/kg/injection, schedule: Q01DX001 (ip), vehicle: saline with Tween-80
[10] = dose: 400.0 mg/kg/injection, schedule: Q01DX001 (ip), vehicle: saline with Tween-80
[11] = dose: 50.0 mg/kg/injection, schedule: Q01DX005 (ip), vehicle: Klucel (hydroxypropylcellulose) (HPC)
[12] = dose: 100.0 mg/kg/injection, schedule: Q01DX005 (ip), vehicle: Klucel (hydroxypropylcellulose) (HPC)
[13] = dose: 200.0 mg/kg/injection, schedule: Q01DX005 (ip), vehicle: Klucel (hydroxypropylcellulose) (HPC)
[14] = dose: 100.0 mg/kg/injection, schedule: Q04DX002 (ip), vehicle: saline with Tween-80
[15] = dose: 200.0 mg/kg/injection, schedule: Q04DX002 (ip), vehicle: saline with Tween-80
[16] = dose: 60.0 mg/kg/injection, schedule: Q01DX005 (ip), vehicle: saline with Tween-80

Measured: T/C

COc1ccc(C(=O)c2ccccc2)cc1OC
inactive: [1] 100 % of control | [2] 100 % of control | [3] 98 % of control | [4] 98 % of control

Fc1cccc2c(SCCCCCCSc3c4ccccc4nc4c(F)cccc34)c3ccccc3nc12
inactive: dose: 60.0 mg/kg/injection, schedule: Q01DX005 (ip), vehicle: Klucel (hydroxypropylcellulose) (HPC) 89 % of control | dose: 120.0 mg/kg/injection, schedule: Q01DX005 (ip), vehicle: Klucel (hydroxypropylcellulose) (HPC) 89 % of control | dose: 240.0 mg/kg/injection, schedule: Q01DX005 (ip), vehicle: Klucel (hydroxypropylcellulose) (HPC) 90 % of control

CCC12NC(=O)NC1(C)NC(=O)N2 (stereo not drawn)
inactive: dose: 6.25 mg/kg/injection, schedule: Q01DX009 (ip), vehicle: saline with Tween-80 91 % of control | dose: 12.5 mg/kg/injection, schedule: Q01DX009 (ip), vehicle: saline with Tween-80 91 % of control | dose: 16.5 mg/kg/injection, schedule: Q01DX009 (ip), vehicle: saline with Tween-80 100 % of control

COCCn1c(=N)c(C(=O)OC)nc2c3ccccc3ccc21
inactive: [5] 104 % of control | [6] 107 % of control | [7] 101 % of control

CN(C)CCCNc1cccc2c1C(=O)c1c(NCCCN(C)C)cccc1C2=O
inactive: dose: 3.75 mg/kg/injection, schedule: Q01DX009 (ip), vehicle: saline 99 % of control | dose: 7.5 mg/kg/injection, schedule: Q01DX009 (ip), vehicle: saline 105 % of control | dose: 12.5 mg/kg/injection, schedule: Q01DX009 (ip), vehicle: water 98 % of control | dose: 15.0 mg/kg/injection, schedule: Q01DX009 (ip), vehicle: saline 106 % of control | dose: 25.0 mg/kg/injection, schedule: Q01DX009 (ip), vehicle: water 95 % of control | dose: 30.0 mg/kg/injection, schedule: Q01DX009 (ip), vehicle: saline 96 % of control | dose: 60.0 mg/kg/injection, schedule: Q01DX009 (ip), vehicle: saline 90 % of control

CN(C)CCCNc1cc(/C=C/c2ccc([N+](=O)[O-])cc2)nc2ccccc12
inactive: [5] 106 % of control | [6] 106 % of control | [7] 106 % of control

CC(=O)OCC1(C)ON=C2CCCCC21 (stereo not drawn)
inactive: [8] 94 % of control | [9] 104 % of control | [10] 94 % of control

Cc1cn(C23CC4CC(CC(C4)C2)C3)c(=O)[nH]c1=O
inactive: [11] 101 % of control | [12] 101 % of control | [13] 97 % of control

OCC1OC(O)C(N=Cc2ccc3c(c2)OCO3)C(O)C1O (stereo not drawn)
inactive: [5] 104 % of control | [6] 100 % of control | [7] 102 % of control

Cc1ccc(S(=O)(=O)N2CC3CC=C(Cc4ccnc5ccccc45)CC(C2)C3=O)cc1 (stereo not drawn)
inactive: dose: 100.0 mg/kg/injection, schedule: Q04DX003 (ip), vehicle: Klucel (hydroxypropylcellulose) (HPC) 105 % of control | dose: 200.0 mg/kg/injection, schedule: Q04DX003 (ip), vehicle: Klucel (hydroxypropylcellulose) (HPC) 91 % of control | dose: 400.0 mg/kg/injection, schedule: Q04DX003 (ip), vehicle: Klucel (hydroxypropylcellulose) (HPC) 96 % of control

COC(=O)C1=C2c3cc4c(cc3CCN2C2(O)c3c(ccc(OC)c3OC)C(=O)C12C(=O)OC)OCO4 (stereo not drawn)
inactive: dose: 50.0 mg/kg/injection, schedule: Q04DX002 (ip), vehicle: saline with Tween-80 96 % of control | [14] 103 % of control | [15] 96 % of control

NC(N)=Nc1nc2ccccc2s1
inactive: dose: 12.5 mg/kg/injection, schedule: Q01DX009 (ip), vehicle: saline sonified 100 % of control | dose: 25.0 mg/kg/injection, schedule: Q01DX009 (ip), vehicle: saline sonified 100 % of control | dose: 50.0 mg/kg/injection, schedule: Q01DX009 (ip), vehicle: saline sonified 100 % of control

Cc1cccc(N=C(c2ccccc2)C2C(=O)c3ccccc3C2=O)c1
inactive: [5] 94 % of control | [6] 94 % of control | [7] 91 % of control

S=CN1CCCCC1
inactive: dose: 15.0 mg/kg/injection, schedule: Q01DX005 (ip), vehicle: saline with Tween-80 98 % of control | dose: 30.0 mg/kg/injection, schedule: Q01DX005 (ip), vehicle: saline with Tween-80 106 % of control | [16] 106 % of control

C1=Cc2ccccc2C(=C2CCOCC2)c2ccccc21
inactive: dose: 50.0 mg/kg/injection, schedule: Q01DX009 (ip), vehicle: saline 113 % of control | dose: 100.0 mg/kg/injection, schedule: Q01DX009 (ip), vehicle: saline 100 % of control | dose: 200.0 mg/kg/injection, schedule: Q01DX009 (ip), vehicle: saline 94 % of control

O=C(c1ccc(Cl)cc1)c1cc2c(ccc3ccccc32)oc1=O
inactive: dose: 6.25 mg/kg/injection, schedule: Q01DX009 (ip), vehicle: saline 91 % of control | dose: 12.5 mg/kg/injection, schedule: Q01DX009 (ip), vehicle: saline 95 % of control | dose: 25.0 mg/kg/injection, schedule: Q01DX009 (ip), vehicle: saline 104 % of control

CCc1ccc(-n2c(C)nc3[nH]cc(C)c3c2=N)cc1
inactive: dose: 12.5 mg/kg/injection, schedule: Q01DX005 (ip), vehicle: Klucel (hydroxypropylcellulose) (HPC) 100 % of control | dose: 25.0 mg/kg/injection, schedule: Q01DX005 (ip), vehicle: Klucel (hydroxypropylcellulose) (HPC) 100 % of control | [11] 98 % of control and 100 % of control

C=C(C)C(=O)OC1C2C(=C)C(=O)OC2CC(C)C2OC2C(=O)C(C)(O)C1OC(=O)C(=C)C (stereo not drawn)
inactive: dose: 12.5 mg/kg/injection, schedule: Q04DX002 (ip), vehicle: Klucel (hydroxypropylcellulose) (HPC) 110 % of control | dose: 25.0 mg/kg/injection, schedule: Q04DX002 (ip), vehicle: Klucel (hydroxypropylcellulose) (HPC) 110 % of control | dose: 50.0 mg/kg/injection, schedule: Q04DX002 (ip), vehicle: Klucel (hydroxypropylcellulose) (HPC) 107 % of control

CS(=O)(=O)N/N=C1/C=C2C/C(=N\NS(C)(=O)=O)C=C2C1
inactive: [11] 92 % of control | [12] 96 % of control | [13] 95 % of control

NC(C[O-])C(=O)[O-].NCC(=O)[O-].[Mn+3] (stereo not drawn)
inactive: [14] 114 % of control | [15] 113 % of control

CSCc1cc(Cl)ccc1N
inactive: [2] 97 % of control | [3] 97 % of control | [4] 97 % of control

S=c1c(-c2ccccc2)cnc2sccn12
inactive: [16] 100 % of control | dose: 120.0 mg/kg/injection, schedule: Q01DX005 (ip), vehicle: saline with Tween-80 96 % of control | dose: 240.0 mg/kg/injection, schedule: Q01DX005 (ip), vehicle: saline with Tween-80 98 % of control

CCCCCCCCCCCCOC(=O)C(N)Cc1ccc(O)cc1 (stereo not drawn)
inactive: dose: 50.0 mg/kg/injection, schedule: Q01DX009 (ip), vehicle: Klucel (hydroxypropylcellulose) (HPC) 98 % of control | dose: 100.0 mg/kg/injection, schedule: Q01DX009 (ip), vehicle: Klucel (hydroxypropylcellulose) (HPC) 102 % of control | dose: 200.0 mg/kg/injection, schedule: Q01DX009 (ip), vehicle: Klucel (hydroxypropylcellulose) (HPC) 97 % of control

CCCCc1ccc(C(N)=O)nc1
inactive: [11] 104 % of control | [12] 99 % of control

COC(=O)/C(=C\c1ccncc1)c1cccc2ccccc12
inactive: [1] 101 % of control | [2] 98 % of control | [3] 104 % of control | [4] 99 % of control

CCN(C(=O)CCl)C(C)(C)C(SSSC(c1ccc(Cl)cc1)C(C)(C)N(CC)C(=O)CCl)c1ccc(Cl)cc1 (stereo not drawn)
inactive: dose: 50.0 mg/kg/injection, schedule: Q04DX003 (ip), vehicle: saline 104 % of control | dose: 100.0 mg/kg/injection, schedule: Q04DX003 (ip), vehicle: saline 113 % of control | dose: 200.0 mg/kg/injection, schedule: Q04DX003 (ip), vehicle: saline 109 % of control

O=c1nc(Cl)c2ccccc2c2ccccc12
inactive: [8] 96 % of control | [6] 96 % of control | [9] 97 % of control | [7] 97 % of control | [10] 87 % of control | dose: 400.0 mg/kg/injection, schedule: Q01DX005 (ip), vehicle: saline with Tween-80 87 % of control
